“Also recorded” adds a separate entry of the source.
How the values were obtained:
[1] = target: T1, AChE (from human erythrocyte) (Homo sapiens, UniProt P22303); assay: biochemical; settings: at 50 μM
T1 construct: AChE (EC 3.1.1.8, from human erythrocyte); purchased Sigma-Aldrich (St. Louis, MO, USA); host or cells: human erythrocyte
Procedure: (§1) BChE (EC 3.1.1.8, from human serum), AChE (EC […]), butyrylthiocholine (BUC) iodide, and acetylthiocholine (ATC) iodide were purchased from Sigma-Aldrich (St. Louis, MO, USA). Enzyme was dissolved and pre-prepared at 2.0 U/mL. 10 μL of enzyme, 20 μL of 0.01 M 5,5′-dithiobis(2-nitrobenzoic acid), 10 μL of tested compound, and 40 μL of PBS were pre-incubated together for 5 min. Io initiate the reaction, 20 μL of 0.01 M BUC or ATC was added. The activity was determined by measuring the increase in absorbance at 410 nm at 37 °C in 2 min intervals using Tecan Spark multimode microplate reader (Mannedorf, Switzerland). The percentage of inhibition (I) was calculated according to the formula: I = (Ac − Ai)/Ac × 100%, with Ai and Ac representing the change in the absorbance in the presence of an inhibitor and without an inhibitor, respectively.

[2] = target: T2, BChE (EC 3.1.1.8, from human serum) (Homo sapiens, UniProt P06276); assay: biochemical; settings: for BChE IR (%) inhibition ratio: at 50 μM; for improved BChE inhibitory activity, folds compared with 1: compared with hit 1; for IC50: mean ± SD of three separate experiments
T2 construct: BChE (EC 3.1.1.8, from human serum); purchased Sigma-Aldrich (St. Louis, MO, USA); host or cells: human serum
T2 sequence (P06276 29-602): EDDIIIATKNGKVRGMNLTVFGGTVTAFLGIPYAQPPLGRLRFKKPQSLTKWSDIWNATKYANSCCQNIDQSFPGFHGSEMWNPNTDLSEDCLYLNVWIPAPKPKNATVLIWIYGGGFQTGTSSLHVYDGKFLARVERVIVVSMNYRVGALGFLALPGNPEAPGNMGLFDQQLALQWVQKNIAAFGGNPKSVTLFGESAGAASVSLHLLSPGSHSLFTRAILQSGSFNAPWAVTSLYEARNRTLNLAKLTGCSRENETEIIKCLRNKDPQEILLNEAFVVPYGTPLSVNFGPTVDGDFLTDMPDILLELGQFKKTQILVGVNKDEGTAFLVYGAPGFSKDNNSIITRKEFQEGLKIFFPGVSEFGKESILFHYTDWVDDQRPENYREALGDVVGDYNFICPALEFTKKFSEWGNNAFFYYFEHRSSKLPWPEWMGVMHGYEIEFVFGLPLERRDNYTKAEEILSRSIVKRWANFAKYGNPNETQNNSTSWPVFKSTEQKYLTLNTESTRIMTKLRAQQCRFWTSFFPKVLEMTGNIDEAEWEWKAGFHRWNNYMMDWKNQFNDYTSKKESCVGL
Procedure: as §1

Aβ1-42 aggregation = target: T3, Aβ1-42 aggregation (Homo sapiens, UniProt P05067); assay: Inhibition of Aβ1-42 aggregation, thioflavin T (ThT) method; assay type: biochemical; settings: for inhibitory activity against Aβ1-42 aggregation (in words): 1 to 10 μM; for inhibition ratio towards Aβ1-42 aggregation: at 10 μM
T3 construct: pre-treated Aβ1–42 (GL Biochem Ltd); purchased GL Biochem Ltd, shanghai, China
T3 sequence (P05067 672-713): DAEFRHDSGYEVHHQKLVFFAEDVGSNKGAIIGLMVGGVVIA
Procedure: The ThT-based fluorometric assay [54] was performed for the determination of compounds’ anti-Aβ1–42 aggregation potency.
Determination of the inhibitory potency on Aβ1–42 aggregation
1,1,1,3,3,3-hexafluoro-2-propanol (HFIP) pre-treated Aβ1–42 (GL Biochem Ltd, shanghai, China) was dissolved in DMSO to make a 200 μM stock solution. The stock solution was centrifuged at the speed of 13,500 rpm for 10 min. The above supernatant was used for further experiments. The compounds for testing were dissolved in DMSO at concentrations of 0.8 mM. A screening assay for the compounds to inhibit Aβ aggregation was performed by measuring ThT fluorescence emission.
μL) and 2 μL of 200 μM Aβ1–42 were added into 76 μL of phosphate-bufered saline (PBS at pH 7.4) in a 96-well microtiter plate. After incubation for 24 h at room temperature, 80 μL of 5 μM ThT solution (in 50 mM glycine-NaOH at pH 8.5) was added to the reaction solution. Fluorescence emission was measured at 490 nm with an excitation wavelength of 450 nm on a Tecan Spark multimode microplate reader. The fluorescence intensities were compared and the % inhibition was calculated by the following equation: 100 − [(Fi − Fb)/(Fo − Fb) × 100] where Fi, Fo and Fb are the fluorescence intensities obtained for Aβ aggregation in the presence of inhibitors, A β1– 42 and ThT; in the presence of Aβ1–42 and THT but no inhibitors; and the blanks

[3] = test system: SH-SY5Y neuroblastoma cells; assay: Cell viability (cytotoxicity) MTT assay; assay type: cell-based; settings: tested concentrations up to 200 μM
Procedure: (§2) The MTT method was used to test the cytotoxicity and neuroprotective activity evaluation of compounds. The detailed procedure was included in Supplementary Materials. […]
42 and ThT; in the presence of Aβ1–42 and THT but no inhibitors; and the blanks […]
SH-SY5Y cells were inoculated into 96-well plates, and each well was seeded with […]. After incubation for 24 h, the medium was removed and replaced with 100 µL medium containing the different concentrations of tested compounds for 24 h, and then incubated with 10 µL of 3-(4,5-dimethylthiazol-2-yl)-2,5-diphenyltetrazolium bromide (MTT) at 37 °C for 3 h. In this step, 100 µL DMSO was added to dissolve the […]
(1 picture or pasted object on this page, not shown here) […]
(§3) formazan crystals. The formazan dye product was measured by the absorbance at 490 nm on a Tecan Spark multimode microplate reader (Tecan, Switzerland).
(§4) Neuroprotective activity assay
SH-SY5Y cells were maintained at 37 °C in a humidified atmosphere containing 5% CO2. Cells were seeded into multi-well plates at a density of 2~2.5 × 10^5 cells/mL in DMEM medium, supplemented with 10% heat-inactivated bovine calf serum (Gibco, South America Origin). Experiments were carried out in 24 h after cells were seeded. […]
Th e compounds were first dissolved with DMSO and then diluted with DMEM medium. […]

[4] = test system: Aβ1-42-induced toxicity in SH-SY5Y cells; assay: Protective activity against Aβ1-42-induced toxicity, MTT method; assay type: cell-based; settings: Homo sapiens, SH-SY5Y, 24 h, read-out: cell viability of Aβ1-42-treated SH-SY5Y cells
Procedure: Based on this observation, compound 23 might be a more promising protective agent against Aβ1-42-induced toxicity on the SH-SY5Y cell model.
as §2, §3, §4
SH-SY5Y cells were maintained at 37 °C in a humidified atmosphere containing 5% CO2. Cells were seeded into multi-well plates at a density of 2~2.5 × 10^5 cells/mL in DMEM medium, supplemented with 10% heat-inactivated bovine calf serum (Gibco, South America Origin). Experiments were carried out in 24 h after cells were seeded.
Aβ1–42 were stored at 4 °C until 0.1 mM stock solutions were prepared in phosphate bufer saline (PBS) on the day of application to cultures. Th e compounds were first dissolved with DMSO and then diluted with DMEM medium. After pretreatment with the compounds for 2 h, Aβ1–42 were added to SH-SY5Y cell cultures in 24 h. Assays for cell viability were performed in 24 h after cultured in fresh medium .

BChE = target: T4, BChE (Homo sapiens, UniProt P06276); assay: Kinetic study of BChE inhibition (Lineweaver-Burk); assay type: biochemical
T4 construct: BChE (EC 3.1.1.8, from human serum); purchased Sigma-Aldrich (St. Louis, MO, USA); host or cells: human serum
T4 sequence (P06276 29-602): as the sequence (P06276 29-602) above
Procedure: To further understand the action mechanism for BChE inhibition of this series of compounds, the kinetic assay was performed with the optimal compound 23 as a model compound. […]. […] The result was confirmed by the subsequent molecular docking study of 23. […].
Kinetic study of BChE inhibition was performed by using Ellman’s method as described in Section 3.3.
Figure 3 Kinetic study of 23 on BChE inhibition. […];

T1 sequence (P22303 other isoform, or with tags, fused parts or gaps): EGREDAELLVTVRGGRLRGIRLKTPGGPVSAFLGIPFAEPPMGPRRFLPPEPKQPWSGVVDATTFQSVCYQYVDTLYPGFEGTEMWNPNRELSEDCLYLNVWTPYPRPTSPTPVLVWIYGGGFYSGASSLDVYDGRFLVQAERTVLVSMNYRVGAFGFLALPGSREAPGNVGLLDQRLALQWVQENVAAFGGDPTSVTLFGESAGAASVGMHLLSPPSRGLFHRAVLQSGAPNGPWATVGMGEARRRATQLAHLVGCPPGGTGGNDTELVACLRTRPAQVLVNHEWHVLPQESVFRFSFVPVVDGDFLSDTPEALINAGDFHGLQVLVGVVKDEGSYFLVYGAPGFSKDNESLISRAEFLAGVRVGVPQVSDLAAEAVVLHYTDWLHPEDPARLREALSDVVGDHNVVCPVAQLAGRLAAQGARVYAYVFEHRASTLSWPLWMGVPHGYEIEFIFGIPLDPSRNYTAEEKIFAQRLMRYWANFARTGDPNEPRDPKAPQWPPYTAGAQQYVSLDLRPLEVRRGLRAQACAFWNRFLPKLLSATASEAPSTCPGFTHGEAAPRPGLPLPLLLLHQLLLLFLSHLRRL

| Structure (SMILES) | AChE IR (%) inhibition ratio [1] [%] | BChE IR (%) inhibition ratio [2] [%] | improved BChE inhibitory activity, folds compared with 1 [2] [fold] | IC50 [2] [nM] | inhibitory activity against Aβ1-42 aggregation (in words) (Aβ1-42 aggregation) | inhibition ratio towards Aβ1-42 aggregation (Aβ1-42 aggregation) [%] | cytotoxicity towards SH-SY5Y cells [3] | viability at 5 µM [4] [%] | viability at 10 µM [4] [%] | fold increase in BChE inhibitory potency ([2]; compared with 9) | fold increase in BChE inhibitory potency ([2]; compared with 16) [fold] | Ki (BChE; BChE, read-out: KI value (replot of slope against concentration)) [nM] | type of BChE inhibition (BChE; Lineweaver-Burk plots) |
| --- | --- | --- | --- | --- | --- | --- | --- | --- | --- | --- | --- | --- | --- |
| O=C(c1ccc(CN2CCc3ccccc3C2)cc1)N1CCCC1 [Compound 9, (4-((3,4-dihydroisoquinolin-2(1H)-yl)methyl)phenyl)(pyrrolidin-1-yl)methanone] | 29.1 | 95.1 | 9 | 2680 ± 280 | dose-dependent manner | 45.5 ± 6.2 | did not show obvious cytotoxicity; also recorded: non-toxic | 84.7 ± 1.77 | 88.8 ± 0.81 | – | – | – | – |
| O=C(Nc1ccccc1Br)c1ccc(CN2CCc3ccccc3C2)cc1 [Compound 23, N-(2-bromophenyl)-4-((3,4-dihydroisoquinolin-2(1H)-yl)methyl)benzamide] | 22.7 | 97.9 | 21 | 830 ± 80 | dose-dependent manner | 44.2 ± 3.3 | did not show obvious cytotoxicity; also recorded: non-toxic | 91.1 ± 1.25 | 98 ± 1.7 | about 3 fold | ~8 | 520 | mixed-type inhibitor |

— publication PMC6680840 (Molecules, 2019)
